The test system of one series is SCDase. In words: Substrate specificity (hydrolysis) of purified SCDase from Pseudomonas sp. TK-4. In kind it is biochemical. To be noted: 10 nmol sphingolipid, 2 milliunits enzyme, 37° C. 16 h, 20 mM sodium acetate buffer pH 5.0, 0.8% Triton X-100, TLC. The method, then: (§1) The enzyme activity of the SCDase is assayed in the following manner. To 10 μl of a substrate solution [50 mM acetate buffer solution (pH 6.0) containing 2 mM of asialo GM1 and 0.6% (w/v) of Triton X-100] is added 10 μl of an enzyme solution. After reacting at 37° C. for 30 minutes, the enzyme reaction is ceased by heating the mixture to 100° C. for 3 minutes. Then the reaction mixture is concentrated to dryness with a centrifugal concentrator. Then the obtained concentrate is dissolved in 10 μl of 50% methanol and placed on a TLC plate (silica gel 60; manufactured by Merck & Co., Inc.). After developing with chloroform/methanol/0.02% aqueous solution of CaCl2 (5/4/1 by volume), the sphingolipid is subjected to color development by the orcinol-sulfuric acid method. […] This spot is determined by using a TLC chromatoscanner (Shimadzu CS-9000, manufactured by Shimadzu Corporation) at a wavelength of 540 nm.
Sphingolipids (10 nmol each) were incubated at 37° C. for 16 h with 2 milliunits of the enzyme in 20 μl of 20 mM sodium acetate buffer, pH 5.0, containing 0.8% Triton X-100. The extent of hydrolysis was examined by TLC and calculated.

In series [1] the test system is SCDase derived from the genus Pseudomonas. In words: Fatty acid exchange reaction on various acceptors by SCDase. In kind it is biochemical. Conditions: 1 nmol [1-14C] stearic acid, 1 nmol sphingolipid, 30 μU SCDase, acetate buffer pH 6.0, 0.8% Triton X-100, overnight 37° C., galactosyl ceramide = 100. The method, then:
A 10 μl portion of 50 mM acetate buffer (pH 6.0) containing 1 nmol [1−^14C] stearic acid, 1 nmol sphingolipid, 0.8% Triton X-100 and 30 μU SCDase derived from the genus Pseudomonas was allowed to react overnight at 37° C.
The thus obtained reaction solution was developed on thin layer chromatography and exposed to an imaging plate to carry out determination of the reaction product by BAS 1000 Imaging Analyzer (manufactured by Fuji Photo Film).

The next series relates to Pseudomonas sp. TK-4. In words: Conversion of glycosphingolipids into lyso-forms by culture of Pseudomonas sp. TK-4. The format is cell-based. Conditions: PY medium with 0.1% 2,6-O-dimethyl-β-cyclodextrin, glycosphingolipid 0.5 mg/ml (Gb4 0.1 mg/ml), 25° C. shaking 3 days, TLC of supernatant. The method, then: A 60 ml portion of PY medium (polypeptone 0.5%, yeast extract 0.1%, sodium chloride 0.2%; pH 7.2) containing 30 mg of ganglioside GM1 (manufactured by Iatron) and 0.1% of 2,6-O-dimethyl-β-cyclodextrin was sterilized and inoculated with the strain which had been incubated overnight in a slant medium containing 0.1% of crude bovine brain ganglioside prepared in accordance with the method described in Methods in Enzymology, 14:660-664 (1969). Then, the strain was incubated therein under shaking at 25° C. for 3 days.
Then the cells were eliminated by centrifuging the culture medium and thus the culture supernatant was obtained.
PY medium (polypeptone 0.5%, yeast extract 0.1%, sodium chloride 0.2%; pH 7.2) containing 0.1% of 2,6-O-dimethyl-β-cyclodextrin was sterilized in an autoclave and filter-sterilized aqueous solutions of various glycosphingolipids [i.e., GM1, GM2 (manufactured by Matreya), GM3 (manufactured by Iatron), GD1a (manufactured by Iatron), GD1b (manufactured by Iatron), GD3 (manufactured by Iatron), GT1b (manufactured by Biocarb), sulfatide (manufactured by Matreya): each 0.5 mg/ml, Gb4 (manufactured by Iatron): 0.1 mg/ml] were added thereto. Then each medium was inoculated with Pseudomonas sp. TK-4, which had been incubated overnight in a slant medium containing 0.1% of crude bovine brain ganglioside, followed by incubation at 25° C. under shaking for 3 days.
Then the cells were eliminated by centrifuging the culture medium to obtain the culture supernatant which was then analyzed by thin layer chromatography.

For a further series, the system named is crude SCDase. In words: Substrate specificity of crude SCDase (culture supernatant) from Shewanella alga NS-589. Conditions: for Substrate specificity: acting on the substrate, forming the corresponding lysosphingolipid and fatty acid: SCDase produced by Shewanella alga NS-589; for Digestion ratio (%): crude SCDase supernatant, 1.2 mM sphingolipid, acetate buffer pH 6.0, Triton X-100, 37° C. 16 hours, TLC. The format is biochemical. From the text:
Acting on acidic glycolipids (GM1, GM2, GD1a, GD1b, sialosyl paragloboside, etc.), neutral glycolipids (lactosyl ceramide, Gb4, Gb5, etc.), sulfated glycolipids (sulfatide, etc.) and sphingomyelin which is a sphingophospholipid, thus forming the corresponding lysosphingolipid and fatty acid in each case.
The substrate specificity was examined as follows. Shewanella alga NS-589 was inoculated into a synthetic medium (dipotassium hydrogenphosphate 0.05%, ammonium chloride 0.05%, sphingomyelin 0.1%, sodium taurodeoxycholate 0.1%, sodium chloride 2%, 2,6-O-dimethyl-β-cyclodextrin 0.1%; pH 7.4). Two days after shaking cultivation at 30° C., the strain was removed to obtain a supernatant by centrifuge. A 50 mM acetate buffer ([…]; pH 6.0) containing 3 μl of the supernatant and 1.6% Triton X-100 was allowed to react with 5 μl of 1.2 mM of each of sphingolipids shown in Table 2 at 37° C. for 16 hours, and then the resulting mixture was analyzed with a thin layer chromatography.
The digestion ratios of various substrates by a crude SCDase obtained from Shewanella alga NS-589.

In series [2] the test system is SCDase derived from the genus Pseudomonas. Briefly: Reverse reaction on various acceptors by SCDase-2 (N-trifluoroacetylated aminododecanoic acid). In kind it is biochemical. Conditions: 66.6 nmol N-trifluoroacetylated aminododecanoic acid, 33.3 nmol lysosphingolipid, 148 μU SCDase, glycine-NaOH pH 11, 0.3% Triton X-100, 48 hours 37° C. As to the method:
A 41.6 μl portion of 25 mM glycine-sodium hydroxide buffer (pH 11) containing 66.6 nmol N-trifluoroacetylated aminododecanoic acid, 33.3 nmol lysosphingolipid, 0.3% Triton X-100 and 148 μU SCDase derived from the genus Pseudomonas was subjected to 48 hours of reaction at 37° C.
The thus obtained reaction solution was developed on thin layer chromatography, a glycosphingolipid was colored with orcinol-sulfuric acid, and other sphingolipids with Coomassie Brilliant Blue, and then determination of the reaction product was carried out by Imaging Densitometer (manufactured by Bio-Rad).

Series [3] has the same test system. Briefly: Reverse reaction on various acceptors by SCDase-1 ([1-14C] stearic acid). The format is biochemical. Conditions: 1 nmol [1-14C] stearic acid, 1 nmol lysosphingolipid, 30 μU SCDase, acetate buffer pH 6.0, 0.8% Triton X-100, overnight 37° C., galactosylsphingosine = 100. The method, then:
A 10 μl portion of 50 mM acetate buffer (pH 6.0) containing 1 nmol [1-^14C] stearic acid, 1 nmol lysosphingolipid, 0.8% Triton X-100 and 30 μU SCDase derived from the genus Pseudomonas was subjected to overnight reaction at 37° C. The thus obtained reaction solution was developed on thin layer chromatography and exposed to an imaging plate to carry out for determining the reaction product by BAS 1000 Imaging Analyzer (manufactured by Fuji Photo Film).

Series [4] is described as follows: Enzymological properties of SCDase of Pseudomonas sp. TK-4 (optimum pH, temperature, stability). In kind it is biochemical. As to the method: as §1
One unit (1 U) of activity is defined as the amount of the enzyme liberating 1 μmol of lysoasialo GM1 per minute from asialo GM1 at 37° C. […]
The enzyme of the present invention is maintained at each definite pH value at 5C for 16 hours. After returning the pH value to 6.0, the enzyme activity is measured to thereby examine the pH stability of the enzyme. […]

For the molecule Glucosyl ceramide [Glc-cer], in the series on SCDase, the “Digestion ratio (%)” value is 48%. Besides, the “Relative activity (%)” value in series [1] turned out to be 129.0%.
In the case of GD1b, in the series with Pseudomonas sp. TK-4, the “Digestion ratio (%)” value was 100%. Moreover, the “Relative activity (%)” value in series [1] is 1.2%. Besides, in the series with crude SCDase, the “Substrate specificity: acting on the substrate, forming the corresponding lysosphingolipid and fatty acid” value (shortened to “Substrate specificity: acting”) is given as “Acting on”.
Turning to lactosyl ceramide [Lac-cer], the “Digestion ratio (%)” value with SCDase was determined as 64%. The “Relative activity (%)” value in series [1] came to 112.0%. Also, in the series with crude SCDase, the “Substrate specificity: acting” value is “Acting on”; the “Digestion ratio (%)” value was found to be 19.3%.
On to `CCCCCCCCCCCCCC=CC(O)C(N)COC1OC(CO)C(OC2OC(CO)C(O)C(OC3(C(=O)O)CC(O)C(NC(C)=O)C(C(O)C(O)CO)O3)C2O)C(O)C1O` (stereo not drawn) [Lysoganglioside GM3], for which the “Reaction Efficiency (%)” value in series [2] worked out at 24%.
In the case of `CCCCCCCCCCCCC/C=C/[C@@H](O)[C@@H](N)CO` [Sphingosine, sphingosine], the “Relative activity (%)” value in series [3] amounted to 11.5%. Further, the “Reaction Efficiency (%)” value in series [2] stood at 69%.
For the molecule GD1a, the figures for the “Digestion ratio (%)” value in the series on SCDase, in the series on Pseudomonas sp. TK-4 and in the series on crude SCDase were 49%, 100% and 32.6%, respectively. For the same molecule, in series [1], the “Relative activity (%)” value was 6.2%. In addition, the “Substrate specificity: acting” value in the series with crude SCDase is recorded as “Acting on”.
Regarding Sulfatide, the “Digestion ratio (%)” value in the series on SCDase was found to be 59%; in the series with Pseudomonas sp. TK-4, 100%. Further, the “Relative activity (%)” value in series [1] turned out to be 31.7%. Also, the “Substrate specificity: acting” value with crude SCDase is “Acting on”.
`CCCCCCCCCCCCC/C=C/[C@@H](O)[C@@H](N)CO[C@@H]1O[C@H](CO)[C@@H](O[C@@H]2O[C@H](CO)[C@H](O)[C@H](O)[C@H]2O)[C@H](O)[C@H]1O` [Lysolactosyl ceramide]: in series [3], the “Relative activity (%)” value worked out at 37.2%.
Turning to Galactosyl ceramide [Gal-cer], the “Digestion ratio (%)” value in the series with SCDase came to 42%. For the same molecule, in series [1], the “Relative activity (%)” value worked out at 100.0%.
Regarding GT1b, the “Digestion ratio (%)” value is reported as 100% with Pseudomonas sp. TK-4 and 26.2% with crude SCDase.
For `CCCCCCCCCCCCC/C=C/[C@@H](O)[C@@H](N)COP(=O)([O-])OCC[N+](C)(C)C` [Lysosphingomyelin, sphingosylphosphorylcholine], in series [3], the “Relative activity (%)” value is recorded as 5.7%.
Regarding Ceramide, the “Relative activity (%)” value in series [1] was 77.5%.
In the case of `CCCCCCCCCCCCC/C=C/[C@@H](O)[C@@H](N)CO[C@@H]1O[C@H](CO)[C@H](O)[C@H](O)[C@H]1O` [Galactosylsphingosine, galactosylsphingosine], the “Relative activity (%)” value in series [3] came out at 100.0%.
Take Gal-GalNAc-Gal-Glc-Cer [Asialo GM1]: in the series with SCDase, the “Digestion ratio (%)” value turned out to be 67%. Moreover, in series [1], the “Relative activity (%)” value is on record as 164.0%.
As for `CCCCCCCCCCCCC/C=C/[C@@H](O)[C@@H](N)CO[C@@H]1O[C@H](CO)[C@@H](O[C@@H]2O[C@H](CO)[C@H](O[C@@H]3O[C@H](CO)[C@H](O)[C@H](O[C@@H]4O[C@H](CO)[C@H](O)[C@H](O)[C@H]4O)[C@H]3NC(C)=O)[C@H](O[C@]3(C(=O)O)C[C@H](O)[C@@H](NC(C)=O)[C@H]([C@H](O)[C@H](O)CO)O3)[C@H]2O)[C@H](O)[C@H]1O` [Lysoganglioside GM1a], the “Relative activity (%)” value in series [3] is given as 15.4%. For the same molecule, in series [2], the “Reaction Efficiency (%)” value came to 29%.
Take `CCCCCCCCCCCCC/C=C/[C@@H](O)[C@@H](N)CO[C@@H]1O[C@H](CO)[C@H](O)[C@H](OS(=O)(=O)O)[C@H]1O` [Lysosulfatide]: the “Relative activity (%)” value in series [3] is 59.6%.

B1: SCDase (Pseudomonas sp. TK-4): sphingolipid ceramide N-deacylase produced by Pseudomonas sp. TK-4, SEQ ID NO:1 (protein)
chain: ELGDYGAWKTLLNLTSPPKADNPVRAEQRVGPYPMLANPAGFRSGFTPTAYFAWQTVQLAPETGAVCGDGSPYKFFVNRMPNTSNTLIYMEGGGACWDYASCSGQAGIRGARNPNGIPDDYMKLANPQASLVSPFVVRLHPYSRVKTQGWNIVYIPYCTGDLYAGDKVAVYDDPSGKKPPLVWHHNGLRNGRAVLGWLKDNLERPGQMLSTGCSAGGAGSLISHSVLRQDLAPDRGFLIDDSGPVFSAAVGGDSQTYPSLPLQNLIRSAWGLDQGPLQFLQSRLPGVSLSNLGSLYPALAANFPGDRLGHTHFWQDLNYSSYSYERFYPEIANAPDKATKEALIKAKWQVDTARLRDTLANLPNFGGYFPQYRALNESHCTTIVDFANGDIQEQGLELSHFIDNVLNGQGPVLDASELSDSADRAKPNNLIYDAINKLL
modifications: OTHER INFORMATION: Description of Unknown Or ganism: sphingolipid ceramide N-deacylase
For the molecule B1, in series [4] (FIG. 2), the “Optimum temperature (maximum activity)” value is “about 40 °C”. Further, the “Heat stability: activity sustained” value in series [4] (after treating at 60° C. for 30 minutes, FIG. 4) was 90%.

For the origin of these results see patent US6821761B2, “Sphingolipid ceramide N-deacylase, methods for producing sphingolipids and sphingolipid derivatives, and sphingolipid ceramide N-deacylase gene” (Takara Bio, Inc., priority 1994, dated 2004).
